According to ChEMBL document CHEMBL3882738, “Dimethylarginine Dimethylaminohydrolase inhibitors and methods of use thereof” (2014):
Active and inactive are the calls of the source. No cut-off for these calls is given here.

Experiments:
[1] = target: T1, N(G),N(G)-dimethylarginine dimethylaminohydrolase 1 (Homo sapiens, UniProt O94760); experiment: Inhibition of recombinant human DDAH1 expressed in Escherichia coli BL21 Star (DE3) using ADMA as substrate assessed as decrease in citrulline production after 4 hrs by colorimetric method
T1 sequence (O94760 whole entry): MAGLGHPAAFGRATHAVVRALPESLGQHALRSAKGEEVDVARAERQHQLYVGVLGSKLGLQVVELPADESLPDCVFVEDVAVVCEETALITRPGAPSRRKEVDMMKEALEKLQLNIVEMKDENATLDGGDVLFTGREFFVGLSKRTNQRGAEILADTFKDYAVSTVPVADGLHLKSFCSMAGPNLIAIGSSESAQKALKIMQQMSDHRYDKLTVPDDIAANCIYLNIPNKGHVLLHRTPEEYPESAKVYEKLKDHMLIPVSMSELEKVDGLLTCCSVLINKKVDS

[2] = target: T1, N(G),N(G)-dimethylarginine dimethylaminohydrolase 1; experiment: Inhibition of recombinant human DDAH1 expressed in Escherichia coli BL21 Star (DE3) using SMTC as substrate assessed as decrease in L-citrulline and methanethiol production by CPM-based fluorimetric assay
[3] = target: T1, N(G),N(G)-dimethylarginine dimethylaminohydrolase 1; conditions: A549, 50 to 100 uM
Description: Inhibition of DDAH in human A549 cells assessed as decrease in serum-stimulated cell proliferation at 50 to 100 uM preincubated for 2 hrs followed by fetal bovine serum addition measured 24 hrs post compound treatment by BrdU incorporation assay

[4] = target: N(G),N(G)-dimethylarginine dimethylaminohydrolase 1 (Mus musculus) (UniProt Q9CWS0); experiment: Inhibition of DDAH in mouse MLE12 cells assessed as decrease in serum-stimulated cell proliferation at 50 to 100 uM preincubated for 2 hrs followed by fetal bovine serum addition measured 24 hrs post compound treatment by BrdU incorporation assay; type: cell-based
N(G),N(G)-dimethylarginine dimethylaminohydrolase 1 (Mus musculus), sequence (Q9CWS0 whole entry): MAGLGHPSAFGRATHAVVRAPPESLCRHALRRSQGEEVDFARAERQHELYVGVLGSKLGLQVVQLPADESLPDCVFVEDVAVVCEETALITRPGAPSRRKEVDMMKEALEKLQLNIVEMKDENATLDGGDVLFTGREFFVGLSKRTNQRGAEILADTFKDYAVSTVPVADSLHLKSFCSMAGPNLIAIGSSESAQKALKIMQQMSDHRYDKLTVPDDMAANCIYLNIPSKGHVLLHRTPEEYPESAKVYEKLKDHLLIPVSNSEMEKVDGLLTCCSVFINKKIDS

[5] = target: T1, N(G),N(G)-dimethylarginine dimethylaminohydrolase 1; experiment: Inhibition of DDAH in HMEC1 assessed as increase in intracellular ADMA levels at 20 uM after 24 hrs by ELISA relative to vehicle-treated control; type: cell-based
[6] = target: T1, N(G),N(G)-dimethylarginine dimethylaminohydrolase 1; experiment: Inhibition of DDAH in lung fibroblasts isolated from late stage idiopathic pulmonary fibrosis patient assessed as reduction of TGF-beta-induced acid-soluble collagen levels at 50 uM after 24 hrs by sircol collagen assay
[7] = target: Transforming growth factor beta (Homo sapiens) (UniProt P01137+P61812+P10600); experiment: Inhibition of TGF-beta-induced acid-soluble collagen levels in lung fibroblasts isolated from late stage idiopathic pulmonary fibrosis patient at 20 uM after 24 hrs by sircol collagen assay; type: protein assay
Transforming growth factor beta (Homo sapiens), sequence (P01137 whole entry, looked up): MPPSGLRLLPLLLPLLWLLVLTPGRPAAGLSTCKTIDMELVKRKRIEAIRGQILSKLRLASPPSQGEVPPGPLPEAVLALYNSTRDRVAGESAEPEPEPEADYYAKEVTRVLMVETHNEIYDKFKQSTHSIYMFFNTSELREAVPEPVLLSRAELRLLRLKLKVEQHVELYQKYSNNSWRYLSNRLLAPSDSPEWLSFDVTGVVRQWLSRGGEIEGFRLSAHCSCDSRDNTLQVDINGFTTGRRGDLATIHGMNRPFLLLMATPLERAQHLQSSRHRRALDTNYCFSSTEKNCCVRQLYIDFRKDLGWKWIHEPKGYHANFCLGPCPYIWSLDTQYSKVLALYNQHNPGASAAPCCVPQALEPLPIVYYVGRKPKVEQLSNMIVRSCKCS
Transforming growth factor beta (Homo sapiens), sequence (P10600 whole entry, looked up): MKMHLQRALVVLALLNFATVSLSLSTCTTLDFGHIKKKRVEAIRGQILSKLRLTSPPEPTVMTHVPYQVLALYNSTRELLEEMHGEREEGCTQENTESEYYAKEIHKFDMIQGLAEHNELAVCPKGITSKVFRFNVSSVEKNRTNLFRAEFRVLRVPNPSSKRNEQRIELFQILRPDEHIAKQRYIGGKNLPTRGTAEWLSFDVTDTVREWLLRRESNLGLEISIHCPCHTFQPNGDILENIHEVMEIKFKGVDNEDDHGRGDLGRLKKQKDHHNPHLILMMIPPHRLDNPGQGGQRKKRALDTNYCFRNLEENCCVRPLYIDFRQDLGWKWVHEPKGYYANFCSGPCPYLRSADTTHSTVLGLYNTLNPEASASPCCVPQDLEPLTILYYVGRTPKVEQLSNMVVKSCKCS
Transforming growth factor beta (Homo sapiens), sequence (P61812 whole entry, looked up): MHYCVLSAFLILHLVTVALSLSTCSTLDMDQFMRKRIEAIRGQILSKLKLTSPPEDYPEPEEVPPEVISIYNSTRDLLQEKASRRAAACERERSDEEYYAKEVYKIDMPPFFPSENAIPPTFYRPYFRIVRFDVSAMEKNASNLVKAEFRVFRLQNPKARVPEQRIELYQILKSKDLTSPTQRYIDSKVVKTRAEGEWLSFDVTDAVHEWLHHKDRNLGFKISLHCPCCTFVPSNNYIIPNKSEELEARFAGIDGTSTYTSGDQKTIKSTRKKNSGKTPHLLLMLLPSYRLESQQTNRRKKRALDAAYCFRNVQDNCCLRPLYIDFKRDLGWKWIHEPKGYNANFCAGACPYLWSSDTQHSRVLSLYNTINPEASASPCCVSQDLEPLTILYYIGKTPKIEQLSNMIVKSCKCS

[8] = target: T1, N(G),N(G)-dimethylarginine dimethylaminohydrolase 1; experiment: Inhibition of recombinant human DDAH1 expressed in Escherichia coli BL21 Star (DE3) using SMTC as substrate assessed as decrease in L-citrulline and methanethiol production at 50 uM by CPM-based fluorimetric assay
[9] = target: T1, N(G),N(G)-dimethylarginine dimethylaminohydrolase 1; experiment: Inhibition of recombinant human DDAH1 expressed in Escherichia coli BL21 Star (DE3) using ADMA as substrate assessed as decrease in citrulline production at 50 uM after 4 hrs by colorimetric method
[10] = target: T1, N(G),N(G)-dimethylarginine dimethylaminohydrolase 1; experiment: Inhibition of recombinant human DDAH1 expressed in Escherichia coli BL21 Star (DE3) using ADMA as substrate assessed as decrease in citrulline production at 50 uM preincubated with protein followed by substrate addition by colorimetric method
[11] = target: T1, N(G),N(G)-dimethylarginine dimethylaminohydrolase 1; experiment: Inhibition of DDAH in human A549 cells assessed as decrease in serum-stimulated cell proliferation at 20 uM preincubated for 2 hrs followed by fetal bovine serum addition measured 24 hrs post compound treatment by BrdU incorporation assay; type: cell-based
[12] = target: T1, N(G),N(G)-dimethylarginine dimethylaminohydrolase 1; experiment: Inhibition of DDAH in lung fibroblasts isolated from late stage idiopathic pulmonary fibrosis patient assessed as reduction of TGF-beta-induced acid-soluble collagen levels at 20 uM after 24 hrs by sircol collagen assay
[13] = target: T1, N(G),N(G)-dimethylarginine dimethylaminohydrolase 1; experiment: Inhibition of DDAH in fibroblasts isolated from idiopathic pulmonary fibrosis patient assessed as downregulation of BMP4 gene expression at 5 to 50 uM relative to vehicle-treated control
[14] = target: T1, N(G),N(G)-dimethylarginine dimethylaminohydrolase 1; experiment: Inhibition of DDAH in fibroblasts isolated from idiopathic pulmonary fibrosis patient assessed as downregulation of ITGB6 gene expression at 5 to 50 uM relative to vehicle-treated control
[15] = target: T1, N(G),N(G)-dimethylarginine dimethylaminohydrolase 1; experiment: Inhibition of DDAH in fibroblasts isolated from idiopathic pulmonary fibrosis patient assessed as downregulation of BMP2 gene expression at 5 to 50 uM relative to vehicle-treated control
[16] = target: T1, N(G),N(G)-dimethylarginine dimethylaminohydrolase 1; experiment: Inhibition of DDAH in fibroblasts isolated from idiopathic pulmonary fibrosis patient assessed as downregulation of ITGB5 gene expression at 5 to 50 uM relative to vehicle-treated control
[17] = target: T1, N(G),N(G)-dimethylarginine dimethylaminohydrolase 1; experiment: Inhibition of DDAH in fibroblasts isolated from early idiopathic pulmonary fibrosis patient assessed as upregulation of HO1 gene expression at 50 uM relative to control
[18] = target: T1, N(G),N(G)-dimethylarginine dimethylaminohydrolase 1; experiment: Inhibition of DDAH in fibroblasts isolated from idiopathic pulmonary fibrosis patient assessed as downregulation of […] gene expression at 5 to 50 uM relative to vehicle-treated control
[19] = target: T1, N(G),N(G)-dimethylarginine dimethylaminohydrolase 1; experiment: Inhibition of DDAH in fibroblasts isolated from idiopathic pulmonary fibrosis patient assessed as downregulation of TGFBR1 gene expression at 5 to 50 uM relative to vehicle-treated control
[20] = target: T1, N(G),N(G)-dimethylarginine dimethylaminohydrolase 1; experiment: Inhibition of DDAH in fibroblasts isolated from idiopathic pulmonary fibrosis patient assessed as downregulation of BMPR2 gene expression at 5 to 50 uM relative to vehicle-treated control
[21] = target: T1, N(G),N(G)-dimethylarginine dimethylaminohydrolase 1; experiment: Inhibition of DDAH in fibroblasts isolated from idiopathic pulmonary fibrosis patient assessed as downregulation of BMPR1B gene expression at 5 to 50 uM relative to vehicle-treated control
[22] = target: T1, N(G),N(G)-dimethylarginine dimethylaminohydrolase 1; experiment: Inhibition of DDAH in fibroblasts isolated from idiopathic pulmonary fibrosis patient assessed as downregulation of ITGB3 gene expression at 5 to 50 uM relative to vehicle-treated control
[23] = target: T1, N(G),N(G)-dimethylarginine dimethylaminohydrolase 1; experiment: Inhibition of DDAH in fibroblasts isolated from idiopathic pulmonary fibrosis patient assessed as downregulation of ITGB1 gene expression at 5 to 50 uM relative to vehicle-treated control
[24] = target: T1, N(G),N(G)-dimethylarginine dimethylaminohydrolase 1; experiment: Inhibition of DDAH in fibroblasts isolated from idiopathic pulmonary fibrosis patient assessed as downregulation of ITGA5 gene expression at 5 to 50 uM relative to vehicle-treated control
[25] = target: T1, N(G),N(G)-dimethylarginine dimethylaminohydrolase 1; experiment: Inhibition of DDAH in fibroblasts isolated from idiopathic pulmonary fibrosis patient assessed as downregulation of SMAD6 gene expression at 5 to 50 uM relative to vehicle-treated control
[26] = target: T1, N(G),N(G)-dimethylarginine dimethylaminohydrolase 1; experiment: Inhibition of DDAH in fibroblasts isolated from idiopathic pulmonary fibrosis patient assessed as downregulation of MMP8 gene expression at 5 to 50 uM relative to vehicle-treated control
[27] = target: T1, N(G),N(G)-dimethylarginine dimethylaminohydrolase 1; experiment: Inhibition of DDAH in bronchial epithelial cells isolated from chronic obstructive pulmonary disease patient assessed as upregulation of HO1 gene expression at 5 to 50 uM after 24 hrs relative to vehicle-treated control; type: cell-based; conditions: Epithelial cell
[28] = target: T1, N(G),N(G)-dimethylarginine dimethylaminohydrolase 1; experiment: Inhibition of DDAH in fibroblasts isolated from chronic obstructive pulmonary disease patient assessed as upregulation of HO1 gene expression at 5 to 50 uM after 24 hrs relative to vehicle-treated control
[29] = target: T1, N(G),N(G)-dimethylarginine dimethylaminohydrolase 1; experiment: Inhibition of DDAH in fibroblasts isolated from idiopathic pulmonary fibrosis patient assessed as downregulation of ITGB8 gene expression at 5 to 50 uM relative to vehicle-treated control
[30] = target: T1, N(G),N(G)-dimethylarginine dimethylaminohydrolase 1; experiment: Inhibition of DDAH in bronchial epithelial cells isolated from chronic obstructive pulmonary disease patient assessed as downregulation of TNF-alpha gene expression at 5 to 50 uM after 24 hrs relative to vehicle-treated control; type: cell-based; conditions: Epithelial cell
[31] = target: T1, N(G),N(G)-dimethylarginine dimethylaminohydrolase 1; experiment: Inhibition of DDAH in fibroblasts isolated from late idiopathic pulmonary fibrosis patient assessed as upregulation of HO1 gene expression at 50 uM relative to control
[32] = target: T1, N(G),N(G)-dimethylarginine dimethylaminohydrolase 1; experiment: Inhibition of DDAH in fibroblasts isolated from idiopathic pulmonary fibrosis patient assessed as downregulation of TGFB1 gene expression at 5 to 50 uM relative to vehicle-treated control
[33] = target: T1, N(G),N(G)-dimethylarginine dimethylaminohydrolase 1; experiment: Inhibition of DDAH in fibroblasts isolated from idiopathic pulmonary fibrosis patient assessed as downregulation of TGFBR2 gene expression at 5 to 50 uM relative to vehicle-treated control
[34] = target: T1, N(G),N(G)-dimethylarginine dimethylaminohydrolase 1; experiment: Inhibition of DDAH in bronchial epithelial cells isolated from chronic obstructive pulmonary disease patient assessed as downregulation of TRPV1 gene expression at 5 to 50 uM after 24 hrs relative to vehicle-treated control; type: cell-based; conditions: Epithelial cell
[35] = Cytotoxicity against mouse MLE12 cells up to 300 uM by lactate dehydrogenase release assay; type: cell-based
[36] = target: T1, N(G),N(G)-dimethylarginine dimethylaminohydrolase 1; experiment: Inhibition of DDAH in human A549 cells assessed as increase in intracellular ADMA levels at 10 to 100 uM after 24 hrs by ELISA relative to vehicle-treated control; type: cell-based
[37] = target: T1, N(G),N(G)-dimethylarginine dimethylaminohydrolase 1; experiment: Reversible inhibition of recombinant human DDAH1 expressed in Escherichia coli BL21 Star (DE3) using SMTC as substrate assessed as decrease in L-citrulline and methanethiol production at 1 to 100 times IC50 preincubated for 1 hr followed by 100 fold dilution by CPM-based fluorimetric assay
[38] = target: T1, N(G),N(G)-dimethylarginine dimethylaminohydrolase 1; experiment: Inhibition of DDAH in human A549 cells assessed as reduction in intracellular nitric oxide levels at 10 to 100 uM after 24 hrs by Griess assay; type: cell-based
[39] = target: T1, N(G),N(G)-dimethylarginine dimethylaminohydrolase 1; experiment: Inhibition of DDAH in lung fibroblasts isolated from late stage idiopathic pulmonary fibrosis patient assessed as reduction of TGF-beta-induced acid-soluble collagen levels at 100 uM after 24 hrs by sircol collagen assay
[40] = Cytotoxicity against human A549 cells up to 300 uM by lactate dehydrogenase release assay; type: cell-based
[41] = target: T1, N(G),N(G)-dimethylarginine dimethylaminohydrolase 1; experiment: Inhibition of DDAH in human A549 cells assessed as decrease in serum-stimulated cell proliferation at 3 to 100 uM preincubated for 2 hrs followed by fetal bovine serum addition measured 24 hrs post compound treatment by BrdU incorporation assay; type: cell-based
[42] = target: N(G),N(G)-dimethylarginine dimethylaminohydrolase 1 (Mus musculus) (UniProt Q9CWS0); experiment: Inhibition of DDAH in mouse MLE12 cells assessed as decrease in serum-stimulated cell proliferation at 3 to 100 uM preincubated for 2 hrs followed by fetal bovine serum addition measured 24 hrs post compound treatment by BrdU incorporation assay; type: cell-based
[43] = target: T1, N(G),N(G)-dimethylarginine dimethylaminohydrolase 1; experiment: Inhibition of DDAH in human A549 cells assessed as reduction of A23187-induced apoptosis by measuring […] in mono and oligo nucleosome content at 20 to 100 uM after 24 hrs; type: cell-based
[44] = target: T1, N(G),N(G)-dimethylarginine dimethylaminohydrolase 1; experiment: Inhibition of DDAH in human A549 cells assessed as downregulation of iNOS expression at 50 to 100 uM after 24 hrs by Western blot method; type: cell-based

Compound: CP(=O)(O)c1nc2ccccc2s1
- IC50 [1]: 9.9 µM

Compound: PHENYLMERCURIC ACETATE
- IC50 [2]: < 0.78 µM

Compound: CC1=CC(=O)C=C(C)C1=NS(=O)(=O)c1ccccc1
- IC50 [2]: 9.03 µM

Compound: C/N=c1\nc(-c2ccccc2)n(-c2ccccc2)s1
- IC50 [2]: 13.2 µM

Compound: COCCNC(=N)NCCC[C@H](N)C(=O)O
- inhibition [3]: Active
- inhibition [4]: Active
- inhibition [5]: 68%
- inhibition [6]: Active

Compound: 4-[sequence] ACID
- inhibition [2]: Active

Compound: O=c1c2ccccc2[se]n1-c1ccccc1
- inhibition [2]: Active

Compound: Cc1cccc(-c2nn(C(=S)Nc3ccccc3)cc2-c2ccnc3ccccc23)n1
- inhibition [7]: Active

Compound: N=C1Sc2ccccc2C2=NCCCN12
- inhibition [5]: 84%
- inhibition [2]: Dose-dependent effect
- inhibition [8]: Active
- inhibition [9]: Active

Compound: COCCCOc1ccnc(C[S+]([O-])c2nc3ccccc3[nH]2)c1C (stereo not drawn)
- inhibition [10]: Active
- inhibition [11]: Active
- inhibition [8]: Active
- inhibition [9]: Active

Compound: CC1=CC(=O)C(Cl)=C(C)/C1=N/S(=O)(=O)c1ccc(C)cc1
- IC50 [2]: 5.5 µM

Compound: COc1ccc2[nH]c([S+]([O-])Cc3ncc(C)c(OC)c3C)nc2n1 (stereo not drawn)
- inhibition [1]: Dose-dependent effect
- inhibition [10]: Active
- inhibition [9]: Active

Compound: Cc1c(OCC(F)(F)F)ccnc1C[S+]([O-])c1nc2ccccc2[nH]1 (stereo not drawn)
- inhibition [12]: Active
- inhibition [1]: Dose-dependent effect
- inhibition [10]: Active
- inhibition [11]: Active
- inhibition [8]: Active
- inhibition [9]: Active

Compound: COc1ccc2[nH]c([S@@+]([O-])Cc3ncc(C)c(OC)c3C)nc2c1
- inhibition [13]: Active
- inhibition [14]: Active
- inhibition [15]: Active
- inhibition [16]: Active
- inhibition [5]: 37%
- fold change (FC) [17]: 5
- inhibition [18]: Active
- inhibition [19]: Active
- inhibition [20]: Active
- inhibition [10]: Active
- inhibition [21]: Active
- inhibition [22]: Active
- inhibition [11]: Active
- inhibition [23]: Active
- inhibition [24]: Active
- inhibition [25]: Active
- inhibition [26]: Active
- fold change (FC) [27]: 4
- fold change (FC) [28]: 10
- inhibition [8]: Active
- inhibition [29]: Active
- inhibition [9]: Active
- inhibition [30]: Active
- fold change (FC) [31]: 2.5
- inhibition [32]: Active
- inhibition [33]: Active
- inhibition [34]: Active

Compound: COc1ccc2[nH]c([S+]([O-])Cc3ncc(C)c(OC)c3C)nc2c1 (stereo not drawn) [OMEPRAZOLE]
- Activity [35]: Non-Toxic
- inhibition [36]: Active
- IC50 [1]: 20 to 85 µM
- inhibition [1]: Dose-dependent effect
- inhibition [10]: Active
- inhibition [37]: Active
- inhibition [6]: Active
- inhibition [38]: Active
- inhibition [39]: Active
- Activity [40]: Non-Toxic
- inhibition [41]: Active
- inhibition [8]: Active
- inhibition [42]: Active
- inhibition [9]: Active
- inhibition [43]: Active
- inhibition [44]: Active

Compound: COc1ccnc(C[S+]([O-])c2nc3cc(OC(F)F)ccc3[nH]2)c1OC (stereo not drawn) [PANTOPRAZOLE]
- IC50 [1]: 63 µM
